# Legend:
# [1] = tested on: ovalbumin-induced asthma model mice; assay: Ovalbumin-induced asthma model mice: eosinophil count in BAL Fluid; assay type: in vivo, Balb/c mice
# [2] = tested on: ovalbumin-induced pulmonary fibrosis model mice; assay: Ovalbumin-induced pulmonary fibrosis model mice: hydroxyproline content in lung tissue; assay type: in vivo, Balb/c mice; settings: valine 15 g/L, dexamethasone 10 mg %, inhalation 40 minutes per day, day 21 to day 42; no treatment 28.7%
# Description: Ovalbumin-induced pulmonary fibrosis model mice were induced by a conventional method using Balb/c mice, and the pulmonary fibrosis suppressive effect of coadministration of L-valine (free form) and dexamethasone by inhalation was investigated. 24 hours after antigen exposure on day 42, the lungs were extirpated from the pulmonary fibrosis model mice, and the hydroxyproline content in lung tissue was measured as an index of the degree of fibrosis. Valine (15 g/L) and dexamethasone (10 mg %) were aerosolized with a nebulizer and coadministered by inhalation (40 minutes per day) on consecutive days from day 21 to day 42. The results are expressed as increments (%) of the hydroxyproline content in each test group compared to the hydroxyproline content in the lung tissues from normal mice.
# [3] = tested on: ovalbumin-induced pulmonary fibrosis model mice; assay: Ovalbumin-induced pulmonary fibrosis model mice: airway resistance (Penh) after methacholine; assay type: in vivo, Balb/c mice; settings: valine 15 g/L, dexamethasone 10 mg %, inhalation 40 minutes per day, day 21 to day 42, no treatment 4.0
# Description: Ovalbumin-induced pulmonary fibrosis model mice were induced by a conventional method using Balb/c mice, and the lung function reduction suppressive effect of coadministration of L-valine (free form) and dexamethasone by inhalation was investigated. 24 hours after antigen exposure on day 42, the pulmonary fibrosis model mice were allowed to inhale methacholine, which is a bronchial constriction inducer, and airway resistance (Penh) was measured using a Buxco whole body plethysmography. Valine (15 g/L) and dexamethasone (10 mg %) were aerosolized with a nebulizer and coadministered by inhalation (40 minutes per day) on consecutive days from day 21 to day 42.
# [4] = tested on: ovalbumin-induced asthma model mice; assay: Lung tissue pathology (H/E staining), immune cell infiltration in ovalbumin-induced asthma model mice; assay type: in vivo, Balb/c mice; settings: valine 3 mM or ornithine hydrochloride 15 mM, free water drinking day 0 to day 21
# Description: After elapse of 24 hours following a third antigen exposure, the lungs were extirpated from the mice and fixed in 10% formalin buffer solution, paraffin sections were prepared, and H/E staining was performed. […] Note that FIG. 7(a) is a lung tissue image of a normal mouse without asthma induction.
# [5] = tested on: Ovalbumin-immunized Balb/c mice; assay: Cytokine productivity of isolated immune cells (lung macrophages co-cultured with splenocytes) from ovalbumin-immunized mice given valine; assay type: in vivo; settings: valine 3 mM free water drinking day 0 to day 11, co-cultured with splenocytes 48 hours, ELISA
# Description: Ovalbumin-immunized Balb/c mice were given L-valine (free form), and changes in the cytokine productivity of isolated immune cells were examined, whereby the effect on the Th1/Th2 balance in a living organism's immune system was investigated. After a 3 mM aqueous solution of valine was prepared, it was administered by the free water drinking method from day 0 to day 11. […] On day 11, macrophages were isolated from the lungs and cultured in the presence of 1 mg/mL ovalbumin overnight, after which they were further co-cultured with splenocytes isolated from an ovalbumin-immunized mouse for 48 hours. After the cultivation, cytokines in the culture supernatant were measured by an ELISA method. […] With valine administration, an increase in the Th1 cytokine content and a reduction in the Th2 cytokine content were observed.
# [6] = tested on: ovalbumin-induced asthma model mice; assay: Cytokine concentrations in BAL Fluid (ELISA) of ovalbumin-induced asthma model mice; assay type: in vivo, Balb/c mice; settings: 0.6 mM aqueous solution, free water drinking day 0 to day 21
# Description: After a 0.6 mM aqueous solution of valine was prepared, it was administered by the free water drinking method from day 0 to day 21. The IFN-γ/IL4 ratio increased from 5.8 for the control group to 8.0 for the valine administration group.
# [7] = tested on: ovalbumin-induced asthma model mice; assay: Airway hypersensitivity test (methacholine, whole body plethysmography) in ovalbumin-induced asthma model mice; assay type: in vivo, Balb/c mice; settings: 3 mM aqueous solution, free water drinking day 0 to day 21; methacholine inhalation; asthma model mice 6.61
# Description: After elapse of 24 hours following a third antigen exposure, the animals were allowed to inhale methacholine, which is an airway constricting substance, and an airway hypersensitivity test of the ovalbumin-induced asthma mice was performed using a whole body plethysmography. As an index of airway resistance, the Penh value was used. In the ovalbumin-induced asthma model mice, the Penh value was 6.61; in the group receiving a 3 mM aqueous solution of valine administered by the free water drinking method from day 0 to day 21, the Penh value decreased to 3.77.
# [8] = 0.6 to 15 mM aqueous solutions, free water drinking day 0 to day 21, 1st of 3 values (respectively), control 33
# [9] = 0.6 to 15 mM aqueous solutions, free water drinking day 0 to day 21, 2nd of 3 values (respectively), control 33
# [10] = 0.6 to 15 mM aqueous solutions, free water drinking day 0 to day 21, 3rd of 3 values (respectively), control 33
compound,measurement,setting,value
"N=C(N)NCCC[C@H](N)C(=O)O [arginine, L-arginine]",eosinophil count in the BAL Fluid,"[1]; 3 to 45 mM aqueous solutions, free water drinking day 0 to day 21, 1st of 3 values (respectively), control 45",26000 µL⁻¹
same,eosinophil count in the BAL Fluid,"[1]; 3 to 45 mM aqueous solutions, free water drinking day 0 to day 21, 2nd of 3 values (respectively), control 45",25000 µL⁻¹
same,eosinophil count in the BAL Fluid,"[1]; 3 to 45 mM aqueous solutions, free water drinking day 0 to day 21, 3rd of 3 values (respectively), control 45",19000 µL⁻¹
"C[C@@H]1C[C@H]2[C@@H]3CCC4=CC(=O)C=C[C@]4(C)[C@@]3(F)[C@@H](O)C[C@]2(C)[C@@]1(O)C(=O)CO [dexamethasone, reference compound]",increment of hydroxyproline content in lung tissue compared to normal mice,[2],15.4%
same,Penh value (airway resistance),[3],4.1
NCC(=O)O [glycine],eosinophil count in the BAL Fluid,[1]; [8],32000 µL⁻¹
same,eosinophil count in the BAL Fluid,[1]; [9],27000 µL⁻¹
same,eosinophil count in the BAL Fluid,[1]; [10],28000 µL⁻¹
"CC[C@H](C)[C@H](N)C(=O)O [isoleucine, L-isoleucine]",eosinophil count in the BAL Fluid,"[1]; 0.45 mM aqueous solution, free water drinking day 0 to day 21, control 20",12000 µL⁻¹
"CC(C)C[C@H](N)C(=O)O [leucine, L-leucine]",eosinophil count in the BAL Fluid,"[1]; 0.9 mM aqueous solution, free water drinking day 0 to day 21, control 20",7000 µL⁻¹
N[C@@H](CO)C(=O)O [serine],eosinophil count in the BAL Fluid,[1]; [8],29000 µL⁻¹
same,eosinophil count in the BAL Fluid,[1]; [9],24000 µL⁻¹
same,eosinophil count in the BAL Fluid,[1]; [10],22000 µL⁻¹
"CC(C)[C@H](N)C(=O)O [valine, L-valine]",effect on eosinophil count in the BAL Fluid compared to the control group,"[1]; 15 mM, free water drinking started at first suction exposure (day 12)",no significant effect
same,eosinophil count in the BAL Fluid,"[1]; 0.12 to 15 mM aqueous solutions, free water drinking day 0 to day 21, 1st of 4 values (respectively), control 36",26000 µL⁻¹
same,eosinophil count in the BAL Fluid,"[1]; 0.12 to 15 mM aqueous solutions, free water drinking day 0 to day 21, 2nd of 4 values (respectively), control 36",23000 µL⁻¹
same,eosinophil count in the BAL Fluid,"[1]; 0.12 to 15 mM aqueous solutions, free water drinking day 0 to day 21, 3rd of 4 values (respectively), control 36",17000 µL⁻¹
same,eosinophil count in the BAL Fluid,"[1]; 0.12 to 15 mM aqueous solutions, free water drinking day 0 to day 21, 4th of 4 values (respectively), control 36",28000 µL⁻¹
same,eosinophil count in the BAL Fluid,"[1]; 0.6, 3, or 15 g/L aqueous solution, oral by sonde 100 μL/time/animal twice a day, day 0 to day 21",decreased with dependence on the dose
same,eosinophil count in the BAL Fluid,"[1]; 0.6 or 15 g/L aqueous solution, inhalation (nebulizer) once daily 30 minutes, 5 days/week, day 11 to day 21",decreased with dependence on the dose
same,"lung tissue symptoms (immune cell infiltration, hypertrophy of bronchial epithelial cells, mucosa-producing cells, bronchial stenosis)",[4],"all of the above-described symptoms were potently suppressed, and no bronchial stenosis was observed"
same,"IL-4 (pg/mL) Mean, culture supernatant",[5],9.2 pg/mL
same,"IFN-γ (pg/mL) Mean, culture supernatant",[5]; control 147.0,341.1 pg/mL
same,increment of hydroxyproline content in lung tissue compared to normal mice,[2],31%
same,IL-4 in BAL Fluid,"[6]; ELISA, control 69.1",120.7 pg/mL
same,IFN-γ in BAL Fluid,"[6]; ELISA, control 403.8",970.4 pg/mL
same,IFN-γ/IL-4 ratio in BAL Fluid,[6]; control 5.8,8.0
same,Penh value (index of airway resistance),[7],3.77
same,Penh value (airway resistance),[3],4.0
